Measurements from patent publication US5332818A, “Immunosuppressive agent and process of producing the same” (Toray Industries, Inc., priority 1989, dated 1994).

Columns and labels:
δ receptor = target: T1, δ receptor (Mus musculus, UniProt P32300); assay: Antagonism of DADLE (δ) in electrically stimulated isolated organ (vas deferens); type: cell-based; details: for κ/δ / μ/δ: Ke selectivity ratio; for κ/δ / μ/δ / selectivity to the δ receptors with respect to κ receptors / selectivity to the δ receptors with respect to μ receptors: Table 1; for concentration dependency of antagonistic activity: δ receptor, FIGS. 1 and 2; for Slope / γ / Kb: δ, in vitro; for Kb: read-out: pA2 (50% Confidence Limit) (converted)
T1 construct: from tissue; host or cells: mouse vas deferens, isolated, electrically stimulated
Method: (§1) The term "δ-opioid antagonist" herein used-means a group of compounds which suppress the inhibition by DADLE or DPDPE of contraction of MVD specimen caused by electric stimulation.
(§2) Ke=[antagonist]/(IC50 ratio -1)
(§3) The IC50 ratio used herein is the value obtained by dividing the IC50 of an agonist, which is measured in the presence of an antagonist, with the IC50 value of the […], that is measured in the absence of the antagonist. Ke value is a value which is introduced for compensating the concentration of antagonist when comparing the IC50 ratio. Thus, the smaller the Ke value, the stronger the antagonist activity.
(§4) The antagonistic activities of the naloxindole hydrochloride and the naltrindole methanesulfonic acid salt obtained in Examples 1 and 3 were determined by the following method:
(§5) Guinea pig ileum (containing μ and κ receptors) and mouse vas deferens were taken out and the organs were subjected to electric stimulations. The activities of the compounds for inhibiting the suppression of contraction of the organs by three agonists, that is, morphine (μ), EKC (κ) and DADLE (δ) were measured.

[1] = test system: graft versus host reaction; assay: Suppression of graft versus host reaction; type: in vivo, mouse (BDF1; C57BL/6 spleen cells); details: oral; for Suppression Rate of Graft versus Host Reaction: 100 mg/kg, once a day for 5 days, lymph node weight day 7, 4 cases, ** significance level < 0.02 (NTB), * < 0.05 (NTI); for graft versus host reaction: in words
Method: It is known that a graft versus host reaction occurs when spleen cells of a parent are transplanted to F1 mouse. In this system, NTI, NTB or cyclosporine A was administered to F1 mouse and the effects of these compounds on the graft versus host reaction were examined.
C57BL/6 mouse was sacrificed and the spleen was removed. Using phosphate buffered saline, a suspension of spleen cells (2×10^8 cells/ml) was prepared. To plantar of left hind leg of BDF1 mice, 50 μl of this spleen cell suspension was subcutaneously injected. From the day of this injection, each test compound was administered once a day for 5 days. The dose was 100 mg/kg and suspensions of the test compounds in 0.5% carboxymethyl cellulose (hereinafter referred to as "CMC") were orally administered. To the control group, 0.5% CMC alone was administered in the same manner. On the 7th day from the day of injection of the spleen cells, the mice were sacrificed and popliteal lymph nodes of right and left hind legs were removed and the weight of the lymph nodes was measured. The difference between the weight of the lymph nodes of the right and left hind legs was calculated and the difference was used as an index of the graft versus host reaction. The obtained results were analyzed by Student's t-test.
The suppression rate of graft versus host reaction was calculated according to the following equation: [formula]

μ receptor = target: T2, μ receptor (Cavia porcellus, UniProt A0ACM8Q262); assay: Antagonism of morphine (μ) in electrically stimulated isolated organ; type: cell-based, Guinea pig; details: for concentration dependency of antagonistic activity: μ receptor, FIGS. 1 and 2; for Slope / γ / pA2 (50% Confidence Limit): μ, in vitro; for pA2 (50% Confidence Limit): NLI value is mean ± S.E.
T2 construct: antagonism of morphine
Method: as §1, §2, §3, §4, §5

spleen cells = assay: Suppression of MLR reaction; type: cell-based, mouse (C57BL/6 and mitomycin-treated Balb/c); details: for inhibition at 1 µg/mL / inhibition at 10 µg/mL / inhibition at 50 µg/mL: Mus musculus, 72 hours, 3 cases, NTI, NTB, NLI as hydrochloric acid salt, read-out: Suppression Rate of MLR Reaction; for inhibition at 1 µg/mL: 1 μg/ml; for inhibition at 10 µg/mL: 10 μg/ml; for inhibition at 50 µg/mL: 50 μg/ml; for MLR reaction: in words, hydrochloric acid salts
Method: If spleen cells from two different lines of mouse which are genetically different, the spleen cells recognize the other type of cells, and the cells are divided and proliferated (MLR reaction).
In this system, hydrochloric acid salt of NTI, NTB or NLI, or for comparison, cyclosporine A was added to the reaction medium and their effect to the MLR reaction was examined.
Balb/c mouse was sacrificed and the spleen was removed. The spleen cells were suspended in RPMI 1640 to prepare a spleen cell suspension (1×10^7 cells/ml). The spleen cells were then cultured in mitomycin C-containing RPMI 1640 for 30 minutes (37° C.) so as to carry out the mitomycin treatment. On the other hand, C57BL/6 mouse was sacrificed and spleen cell suspension (1×10^6 cells/ml) was prepared using RPMI 1640.
In the wells of a 96-well flat-bottomed microplate, 100 μl of C57BL/6 mouse spleen cell suspension, 50 μl of mitomycin-treated Balb/c mouse spleen cell suspension and 50 μl of RPMI 1640 containing the test compound were placed and the cells were cultured for 72 hours (37° C., 5%CO2). As a control, 50 μl of RPMI 1640 was added. Eight hours before the termination of the culture, 2 μCi of [^3 H] thymidine was added. After termination of the culture, the cells were collected on a filter paper by using a cell harvester. After drying the filter paper, the filter paper was placed in a vial containing toluene-based scintillator and the radioactivity was measured by a liquid scintillation counter.
The suppression rate of MLR reaction was calculated according to the following equation: [formula]

mouse spleen cells = assay: Suppression of mitogen (ConA) reaction; type: cell-based, C57BL/6 mouse; details: 48 hours, 3 cases, read-out: Suppression Rate of Mitogen Reaction; for inhibition at 1 µg/mL: 1 μg/ml; for inhibition at 10 µg/mL: 10 μg/ml; for inhibition at 50 µg/mL: 50 μg/ml
Method: If mouse spleen cells are cultured in vitro in the presence of concanavalin A (hereinafter referred to as "ConA" for short), the cells are divided and proliferated (mitogen reaction). In this system, the immunosuppressive agent of the present invention or cyclosporin A as a comparative example was added to the culture medium and the effects to the mitogen reaction were examined.
More particularly, C57BL/6 mouse was sacrificed and the spleen was removed. The spleen cells were suspended in RPMI 1640 culture medium containing 10% fetal calf serum (hereinafter referred to as "RPMI 1640" for short) so as to prepare a spleen cell suspension (5×10^6 cells/ml). In the wells of a flat-bottomed 96-well microplate, 100 μl of the suspension was placed and then 50 μl of RPMI 1640 containing ConA (4 μg/ml) as well as 50 μl of RPMI 1640 containing the test compound in the concentration shown in Table 2 were added. The cells were cultured for 48 hours (37° C. 5%CO2) As a control, 50 μl of RPMI 1640 was added. Eight hours before the termination of the culture, 2 μ Ci of [^3 H] thymidine was […], added. After termination of the culture, the cells were collected on a filter paper by using a cell harvester. After drying the filter paper, the filter paper was placed in a vial containing toluene-based scintillator and the radioactivity was measured by a liquid scintillation counter.
The suppression rate of mitogen reaction was calculated according to the following equation: [formula]

κ receptor = target: T3, κ receptor (Cavia porcellus, UniProt P41144); assay: Antagonism of EKC (κ) in electrically stimulated isolated organ; type: cell-based, Guinea pig; details: for concentration dependency of antagonistic activity: κ receptor, FIGS. 1 and 2; for Slope / γ / Kb: κ, in vitro; for Kb: NLI value is mean ± S.E., read-out: pA2 (50% Confidence Limit) (converted)
T3 construct: from tissue; host or cells: guinea pig ileum, isolated, electrically stimulated
Method: as §1, §2, §3, §4, §5

[2] = in words; cited from earlier work
[3] = in words; cited from earlier work; remark: listed apart in the source

T1 sequence (P32300 whole entry): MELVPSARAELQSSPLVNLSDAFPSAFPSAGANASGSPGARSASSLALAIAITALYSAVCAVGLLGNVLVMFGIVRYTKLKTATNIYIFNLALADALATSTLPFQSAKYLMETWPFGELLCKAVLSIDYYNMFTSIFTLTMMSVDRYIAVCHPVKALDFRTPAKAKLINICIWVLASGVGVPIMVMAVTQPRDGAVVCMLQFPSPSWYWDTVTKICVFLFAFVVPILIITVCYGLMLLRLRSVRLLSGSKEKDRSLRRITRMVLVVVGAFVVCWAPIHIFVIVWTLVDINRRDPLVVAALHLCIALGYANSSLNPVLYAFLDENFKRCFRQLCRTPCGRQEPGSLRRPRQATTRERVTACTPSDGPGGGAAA
T3 sequence (P41144 whole entry): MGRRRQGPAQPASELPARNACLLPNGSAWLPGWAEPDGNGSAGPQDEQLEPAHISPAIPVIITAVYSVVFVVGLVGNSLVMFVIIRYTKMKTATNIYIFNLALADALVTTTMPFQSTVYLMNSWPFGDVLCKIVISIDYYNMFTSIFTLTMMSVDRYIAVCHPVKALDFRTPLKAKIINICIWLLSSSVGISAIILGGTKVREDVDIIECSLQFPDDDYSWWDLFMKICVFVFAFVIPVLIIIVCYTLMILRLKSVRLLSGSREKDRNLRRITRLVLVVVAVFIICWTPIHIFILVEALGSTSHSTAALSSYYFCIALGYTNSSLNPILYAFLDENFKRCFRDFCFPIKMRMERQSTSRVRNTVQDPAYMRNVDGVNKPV
T2 sequence (A0ACM8Q262 1-400): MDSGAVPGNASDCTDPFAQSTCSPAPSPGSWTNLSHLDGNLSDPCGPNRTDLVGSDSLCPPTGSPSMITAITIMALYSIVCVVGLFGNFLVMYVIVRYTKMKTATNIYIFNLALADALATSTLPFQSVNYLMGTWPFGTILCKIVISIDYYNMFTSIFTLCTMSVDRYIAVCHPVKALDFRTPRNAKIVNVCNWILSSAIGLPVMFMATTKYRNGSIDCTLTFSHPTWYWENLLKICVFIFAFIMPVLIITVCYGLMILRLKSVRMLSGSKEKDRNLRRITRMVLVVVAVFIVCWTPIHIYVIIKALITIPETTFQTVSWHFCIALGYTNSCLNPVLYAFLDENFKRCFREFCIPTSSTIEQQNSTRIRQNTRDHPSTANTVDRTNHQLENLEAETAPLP

Row | SMILES | κ/δ (δ receptor) | μ/δ (δ receptor) | selectivity to the δ receptors with respect to κ receptors (δ receptor) | selectivity to the δ receptors with respect to μ receptors (δ receptor) | concentration dependency of antagonistic activity (δ receptor) | Slope (δ receptor) | γ (δ receptor) | Kb (δ receptor) [nM] | Suppression Rate of Graft versus Host Reaction [1] [%] | graft versus host reaction [1] | concentration dependency of antagonistic activity (μ receptor) | Slope (μ receptor) | γ (μ receptor) | inhibition at 1 µg/mL (spleen cells) [%] | inhibition at 10 µg/mL (spleen cells) [%] | inhibition at 50 µg/mL (spleen cells) [%] | MLR reaction (spleen cells) | inhibition at 1 µg/mL (mouse spleen cells) [%] | inhibition at 10 µg/mL (mouse spleen cells) [%] | inhibition at 50 µg/mL (mouse spleen cells) [%] | also measured
1 | Oc1ccc2c3c1O[C@H]1c4[nH]c5ccccc5c4C[C@@]4(O)[C@@H](C2)N(CC2CC2)CC[C@]314 [NTI, naltrindole] | 104 | 91 | about 100 times | about 100 times | increases proportionally with its concentration | 1.354 | 0.863 | 0.417 | 47 | suppressed | increases proportionally with its concentration | 1.330 | 0.791 | 0 | 100 | 100 | suppressed | 12 | 77 | 100 | pA2 (50% Confidence Limit) (μ receptor): 7.42 (7.26-7.58); concentration dependency of antagonistic activity (κ receptor): increases proportionally with its concentration; Slope (κ receptor): 1.807; γ (κ receptor): 0.941; Kb (κ receptor): 43.7 nM
2 | C=CCN1CC[C@]23c4c5ccc(O)c4O[C@H]2c2[nH]c4ccccc4c2C[C@@]3(O)[C@H]1C5 [NLI, naloxindole] | 407 | 251 | about 400 times | about 250 times | concentration-dependent | 1.066 | 0.936 | 0.55 |  |  | did not show dependency on the concentration | -0.063 | -0.062 | 22 | 95 | 100 | suppressed | 12 | 56 | 100 | affinity to δ receptors (δ receptor; in words, NLI vs NTI): slightly inferior to NTI; pA2 (50% Confidence Limit) (μ receptor): 6.86 ± 0.01; concentration dependency of antagonistic activity (κ receptor): did not show dependency on the concentration; Slope (κ receptor): 0.105; γ (κ receptor): 0.149; Kb (κ receptor): 141 nM
3 | C=CC[C@@H]1/C=C(\C)C[C@H](C)C[C@H](OC)[C@H]2O[C@@](O)(C(=O)C(=O)N3CCCC[C@H]3C(=O)O[C@H](/C(C)=C/[C@@H]3CC[C@@H](O)[C@H](OC)C3)[C@H](C)[C@@H](O)CC1=O)[C@H](C)C[C@@H]2OC [FK-506] |  |  |  |  |  |  |  |  |  |  |  |  |  |  |  |  |  |  |  |  | toxicity to kidney [2]: stronger toxicity to kidney than cyclosporine A; toxicity to liver [3]: strong toxicity to liver
4 | Oc1ccc2c3c1O[C@H]1c4oc5ccccc5c4C[C@@]4(O)[C@@H](C2)N(CC2CC2)CC[C@]314 [NTB, naltrbenzofuran] |  |  |  |  |  |  |  |  | 44 | suppressed |  |  |  | 5 | 81 | 100 | suppressed | 14 | 41 | 100 | 
